Assay results as given in patent US10945972B2, “Particulate materials” (Nektar Therapeutics, priority 2002, dated 2021).

What was measured:
Format in all cases: physicochemical
[1] = Laser diffraction HELOS/RODOS of TBS (Example 8); settings: 2 bar, listed as TBS 2
Method: A small amount of TBS powder was analysed using a laser diffraction RODOS/VIBRI dispersing system (HELOS/RODOS, Sympatec GmbH, Clausthal-Zellerfeld, Germany). The instrument consisted of a laser sensor HELOS and a RODOS dry-powder air-dispersion system (Sympatec GmbH, Clausthal-Zellerfeld, Germany). Different measurement ranges of the laser sensor were provided by interchangeable objectives R1 (0.1-35 μm) and R2 (0.25-87.5 μm). The rate of powder dispersion was controlled by adjusting the pressure of the compressed air flow. A pressure of 2 bar was sufficient to achieve deagglomeration of primary particles without attrition.

[2] = AEROSIZER time-of-flight of TBS (Example 8); settings: listed as TBS 2
Method: The TBS samples were also analysed using an AEROSIZER™ (Amherst Process Instruments, Amherst, Mass., USA), provided with pulse jet disperser, the AERODISPERSER™, to introduce the powders to the instrument. The measurement range of the AEROSIZER™ is nominally from 0.2 to 200 μm of aerodynamic diameter with the standard 750 μm diameter tapered nozzle. The micronized and SEDS™ TBS samples were analyzed for 300 seconds in triplicate using normal deagglomeration conditions, feed rate (5000 particles per second) and medium shear force (0.5 psi).

[3] = Particle size by Helos/Rodos laser diffraction (Example 1); settings: geometric projection-equivalent volume mean diameter
Method: PSD measurements were performed using firstly, AEROSIZER® time-of-flight instrument equipped with AERO-[…]® (TSI Inc., Minneapolis. USA) and secondly, laser diffraction sensor Helos with dry-powder air-dispersion system Rodos (Sympatec GmbH. Germany). The volume mean particle diameter, VMD, was obtained for both instruments using software options. In the general case of non-spherical particles, these instruments cannot provide the exact value of VMD, however, the time-of-flight technique gives an aerodynamic-equivalent particle diameter, whereas the laser diffraction method provides the geometric projection-equivalent diameter. These diameters afford the complementary information on PSD and therefore can be used for comparative size analysis.

[4] = Inverse gas chromatography of TBS (Example 8)
Method: An empty GC column was uniformly packed with the powder of interest (TBS). Pre-silanized commercially available straight glass columns of 30 cm length with a 3 mm internal diameter were used in this investigation. The silanation procedure was necessary to minimize active sites on the inner glass surfaces, which strongly interact with polar probes. Each column was packed at the detector end with a small amount of silanised glass wool, was clipped to a stand and powder was added through a glass funnel with the aid of a mechanical column packer (tapping) to improve powder flow and remove any air gaps. […] A. Hewlett Packard 6890 Series Gas Chromatograph (GC) (Hewlett Packard, Penna, USA) oven equipped with an autosampler was used to control the solvent temperature. The 6890 GC data acquisition system was used to record data from a thermal conductivity detector (TCD) and flame ionisation detector (FID) with the instrument modified for IGC by Surface Measurement Systems (SMS), Manchester, UK. The combination of detectors allowed sensitive analysis of both organic vapour elution and water (although RH was not raised above 0% for these experiments).
The whole system was fully automated by control software (SMS iGC Controller v1.3) and the data analyzed using SMS iGC Analysis macros. Prior to analysis, each column was equilibrated at 30° C. and 0% relative humidity (RH) for 5 hours by passing dry helium gas through the column. Helium gas was also used as the carrier gas. Hydrogen and compressed air flow rates were set at 40 and 450 ml min respectively for the FID. The chromatograph injection port was maintained at 80° C., TCD detector at 150° C. and the FID detector at 150° C. Column temperature was set at 30° C. throughout analysis. Data were obtained by flowing helium gas at 10 ml min^−1 through the sinalized glass column packed with a known weight of powdered material and injecting small amounts (concentration P/Po=0.05) of a range of probe vapors with different polarities. The retention times of the probes were measured using SMS iGC Controller v1.3 software, at infinite dilution or near zero surface coverage (equivalent to 10^−4-10^−7 μl of liquid) where retention is independent of the quantity of probe injected. For each sample, two columns were prepared and analysed by employing a method based on standard settings, which allows the precise control and measurement of experimental variables. This is essential in producing meaningful results. The data were used to calculate the dispersive and non-dispersive forces acting at TBS particle surfaces using the method developed by Schultz and co-workers (J. Schultz, L. Lavielle and C. Martin. The role of the interface in carbon fibre-epoxy composites, J. Adhesion, 23, 45-60 (1987)).

Sympatec D4, 3 (μm) [1]: 3.43 μm
Aerosizer D4, 3 (μm) [2]: 3.44 μm
VMD (μm) (laser diffraction) [3]: 3.43 μm
γs^D mJm^−2 ([4]; 30° C., 0% RH, listed as TBS 2): 55.05 mJm^−2
KA ([4]; listed as TBS 2): 0.778
−ΔGA^SP (kJ/mol) Acetone ([4]; probe acetone, listed as TBS 2): 10.42 kJ/mol
−ΔGA^SP (kJ/mol) Dioxane ([4]; probe dioxane): 14.20 kJ/mol
−ΔGA^SP (kJ/mol) Ethyl acetate ([4]; probe ethyl acetate, listed as TBS 2): 13.76 kJ/mol
−ΔGA^SP (kJ/mol) Toluene ([4]; probe toluene, listed as TBS 2): 2.85 kJ/mol
Compound: CC(C)(C)NCC(O)c1cc(O)cc(O)c1 (stereo not drawn) [TSB SEDS, terbutaline sulphate]
